Measurements: patent publication US20120071431A1, “Platycodin Radix Extracts, and Their Use in Treating Disease Conditions Associated with Angiogenesis” (priority 2010, published 2012)
Entries after “also recorded” stand apart in the source; their conditions may differ.

Tests used:
pancreatic lipase = target: T1, pancreatic lipase (Homo sapiens, UniProt P16233); conditions: cited from earlier work
T1 sequence (P16233 17-465): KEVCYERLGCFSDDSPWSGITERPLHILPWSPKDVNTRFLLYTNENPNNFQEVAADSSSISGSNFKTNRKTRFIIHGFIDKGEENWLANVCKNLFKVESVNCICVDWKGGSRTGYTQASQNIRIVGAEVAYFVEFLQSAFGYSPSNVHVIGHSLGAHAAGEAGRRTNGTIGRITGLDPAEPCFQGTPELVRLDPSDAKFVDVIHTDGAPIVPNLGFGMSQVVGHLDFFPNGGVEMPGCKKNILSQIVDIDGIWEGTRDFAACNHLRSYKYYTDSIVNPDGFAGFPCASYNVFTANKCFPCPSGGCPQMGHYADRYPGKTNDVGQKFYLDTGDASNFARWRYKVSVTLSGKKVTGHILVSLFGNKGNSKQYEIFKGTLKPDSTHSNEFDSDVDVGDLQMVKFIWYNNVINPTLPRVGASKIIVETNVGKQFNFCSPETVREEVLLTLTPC

[1] = tested on: angiogenesis in human fat tissue; assay: human fat tissue angiogenesis assay (substance added to the media); format: cell-based
Method: The above extracts of platycodin, both PS and PD, were assayed for antiangiogenic activity using the human fat angiogenesis assay of Greenway et al. (2007).
Study 1: An aqueous extract of Platycodi radix saponins at 1% w/v was tested in our human adipose tissue assay. Briefly, subcutaneous adipose tissue was removed from patients undergoing cosmetic surgical procedures. The fat was placed directly into sterile assay media, transported directly to the laboratory from the surgery suite in the sterile container and processed under a laminar flow hood. The tissue was cut into fragments approximately 1 mm thick and 2 mm in diameter. These fragments were placed in 96-well plates containing a 4 μL human thrombin solution (0.05 IU in 4 μL per well) and covered with 100 μL clotting media (3 mg/mL fibrinogen; Sigma Chemical Co., St Louis, Mo., USA), 0.5% ε-amino caproic acid (Sigma Chemical Co.) in angiogenesis media containing 100 U/mL penicillin, 100 U/mL streptomycin sulfate and 2.5 μg/mL amphotericin β in Medium 199 (Gibco BRL, Gaithersburg, Md., USA). The mixture was allowed to clot by incubation in 6% CO2 at 37° C. in a humidified incubator. After the media had gelled overnight, the fat-containing clot was supplemented with 100 μL angiogenesis media containing 20% fetal bovine serum (Gibco BRL). The total volume of each well was 200 μL. There were 30 replicates for the 1% w/v Platycodi radix saponins and the media control. The angiogenesis media were replaced every 48 h and appropriate concentrations of fresh Platycodi radix saponins or media control were added. Wells were evaluated for the angiogenic response as described by Greenway et al. (2007). An observer unbiased to the treatment protocols evaluated the angiogenic response using a semi-quantitative visual rating scale. Briefly, the tissue was viewed under an inverted microscope, visually divided into four quadrants and each quadrant was given a numeric score from 0 to 4 based on the neovessels' length, density, and percentage of the quadrants' circumference involved with the angiogenic response. Numeric results from the four quadrants were summed and expressed as an angiogenic index ranging from 0 (no neovessels apparent in any quadrant) to 16 (highly vascularized in all four quadrants). The extract of Platycodi radix saponins at 1% w/v was tested, followed by Platycodin D, and finally by the Platycodi radix saponins standardized to the Platycodin D content.

SMILES: C[C@@H]1O[C@@H](O[C@H]2[C@H](OC(=O)[C@]34CCC(C)(C)C[C@H]3C3=CC[C@@H]5[C@@]6(C)C[C@H](O)[C@H](O[C@@H]7O[C@H](CO)[C@@H](O)[C@H](O)[C@H]7O)C(CO)(CO)[C@@H]6CC[C@@]5(C)[C@]3(C)C[C@H]4O)OC[C@H](O)[C@@H]2O)[C@H](O)[C@H](O)[C@H]1O[C@@H]1OC[C@@H](O)[C@H](O[C@@H]2OC[C@](O)(CO)[C@H]2O)[C@H]1O [PD, platycodin D]
- inhibition of pancreatic lipase (pancreatic lipase): inhibit pancreatic lipase
- inhibition of angiogenesis (angiogenic index) ([1]; 10^-4 M (concentration of platycodin D) and higher): complete inhibition of angiogenesis
- inhibition of angiogenesis ([1]; 10^-5 M, difference not statistically significant): partial inhibition
- inhibition of angiogenesis ([1]; concentration not given): inhibited angiogenesis; also recorded: inhibitors of angiogenesis
- inhibition of angiogenesis ([1]; concentrations above 10^-4 M): totally inhibited angiogenesis
- inhibition of angiogenesis ([1]; concentrations below 10^-4 M): did not inhibit angiogenesis
